# Reference: patent publication USRE47689E1, “Compounds for treating spinal muscular atrophy” (PTC Therapeutics, Inc., priority 2011, dated 2019)
# Legend:
# Smn protein = Smn protein assay in cultured cells (SMN HTRF); assay type: cell-based, human; details: 48 hours; for maximum fold (Fold) increase of Smn protein: SMA patient fibroblast cells, 7-point concentration data, fold increase relative to vehicle control (SMN HTRF); for EC1.5x (concentration giving 1.5-fold Smn protein increase): SMA Type 1 patient fibroblast cells (GM03813), 7-point concentration curve, SMN HTRF, concentration producing 1.5 times Smn protein vs DMSO vehicle control, read-out: EC1.5x for Smn protein expression
# Procedure, shortened: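 Lysates in RIPA with protease inhibitors are incubated overnight at room temperature with HTRF anti-SMN antibodies. EC1.5x is derived from fold increase in ΔF over vehicle.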
# [1] = tested on: SMN2 minigene (full length SMN2 minigene mRNA containing SMN2 exon 7); experiment: SMN2 minigene mRNA splicing RT-qPCR assay in cultured cells; assay type: cell-based, human; details: Homo sapiens, HEK293-H; HEK293H cells stably transfected with SMN2-A minigene; 24 hours; 7-point concentration curve; 1.5-fold relative to vehicle-treated cells; read-out: EC1.5x for production of full length SMN2 mRNA
# Procedure, shortened: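 HEK293H cells stably carrying the SMN2-A minigene treated 24 h at 37° C with compound (DMSO, 200× stock), then lysed. Multiplex RT-qPCR (SMN primers 0.4 μM final; 40 cycles) measures full-length exon 7-containing minigene mRNA, normalized to GAPDH and to vehicle; EC1.5x derived and binned by stars.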
melting point [°C],Compound,maximum fold (Fold) increase of Smn protein (Smn protein),EC (1.5-fold) [1] [µM],EC1.5x (concentration giving 1.5-fold Smn protein increase) (Smn protein) [nM]
203 to 205,"Cc1ccn2nc(-c3cc4ccc(N5CCNC(C)(C)C5)cc4oc3=O)cc2c1 [Compound 305, 7-(3,3-dimethylpiperazin-1-yl)-3-(5-methylpyrazolo[1,5-a]pyridin-2-yl)-2H-chromen-2-one]",** (fold increase between >1.2 and ≤1.35),0.3 to 1,
252 to 255,"Cc1ccc2nc(-c3cc4ccc(N5CCCNCC5)cc4oc3=O)cn2n1 [Compound 631, 7-(1,4-diazepan-1-yl)-3-(6-methylimidazo[1,2-b]pyridazin-2-yl)-2H-chromen-2-one]",* (maximum fold increase of ≤1.2),0.3 to 1,
170 to 174,"COc1cc(-c2cc3ccc(N4CCNCC4)cc3oc2=O)ccc1C [Compound 574, 3-(3-methoxy-4-methylphenyl)-7-(piperazin-1-yl)-2H-chromen-2-one]",* (maximum fold increase of ≤1.2),1 to 3,
287 to 297,"Cc1cc(F)c2nc(-c3cc4ccc(N5CCN6CCC5CC6)cc4oc3=O)cn2c1 [Compound 561, 7-(1,4-diazabicyclo[3.2.2]non-4-yl)-3-(8-fluoro-6-methylimidazo[1,2-a]pyridin-2-yl)-2H-chromen-2-one]",**** (fold increase between >1.5 and ≤1.65),0.3 to 1,< 300
290 to 300,"Cc1cc([N+](=O)[O-])c2nc(-c3cc4ccc(N5C[C@@H](C)N[C@@H](C)C5)cc4oc3=O)cn2c1 [Compound 701, 7-[(3R,5S)-3,5-dimethylpiperazin-1-yl]-3-(6-methyl-8-nitroimidazo[1,2-a]pyridin-2-yl)-2H-chromen-2-one]",** (fold increase between >1.2 and ≤1.35),1 to 3,
198 to 201,"O=c1oc2cc(OC3CCNCC3)ccc2cc1-c1nc2ccccc2o1 [Cpd 20, 3-(1,3-benzoxazol-2-yl)-7-(piperidin-4-yloxy)-2H-chromen-2-one]",* (maximum fold increase of ≤1.2),3 to 30,
263 to 266,"Cc1cn2cc(-c3cc4ccc(N5CCN(C6CC6)CC5)cc4oc3=O)nc2c(C)n1 [Compound 762, 7-(4-cyclopropylpiperazin-1-yl)-3-(6,8-dimethylimidazo[1,2-a]pyrazin-2-yl)-2H-chromen-2-one]",**** (fold increase between >1.5 and ≤1.65),< 0.1,300 to 1000
214 to 221,"O=c1oc2cc(N3CCNCC3)ccc2cc1-c1noc(-c2ccccc2)n1 [Cpd 50, 3-(5-phenyl-1,2,4-oxadiazol-3-yl)-7-(piperazin-1-yl)-2H-chromen-2-one]",* (maximum fold increase of ≤1.2),1 to 3,
228 to 230,"Cc1ccc2oc(-c3cc4ccc(N5CCN6CCC[C@H]6C5)cc4oc3=O)cc2n1 [Compound 722, 7-[(8aS)-hexahydropyrrolo[1,2-a]pyrazin-2(1H)-yl]-3-(5-methylfuro[3,2-b]pyridin-2-yl)-2H-chromen-2-one]",* (maximum fold increase of ≤1.2),1 to 3,
178 to 190,"Cc1cn2cc(-c3cc4ccc(OCCN5CCCCC5)cc4oc3=O)nc2c(C)n1 [Compound 953, 3-(6,8-dimethylimidazo[1,2-a]pyrazin-2-yl)-7-[2-(piperidin-1-yl)ethoxy]-2H-chromen-2-one]",**** (fold increase between >1.5 and ≤1.65),< 0.1,< 300
184 to 186,"Cc1nccn2cc(-c3cc4ccc(N5CCN[C@@H](C)C5)cc4oc3=O)cc12 [Compound 566, 7-[(3S)-3-methylpiperazin-1-yl]-3-(1-methylpyrrolo[1,2-a]pyrazin-7-yl)-2H-chromen-2-one]",**** (fold increase between >1.5 and ≤1.65),< 0.1,< 300
265 to 268,"Cc1nc(Cl)cn2cc(-c3cc4ccc(N5CCN[C@H](C)C5)cc4oc3=O)nc12 [Compound 699, 3-(6-chloro-8-methylimidazo[1,2-a]pyrazin-2-yl)-7-[(3R)-3-methylpiperazin-1-yl]-2H-chromen-2-one]",***** (fold increase >1.65),0.1 to 0.3,300 to 1000
185 to 188,"Cc1cn2cc(-c3cc4ccc(OCCNCC(C)O)cc4oc3=O)nc2c(C)n1 (stereo not drawn) [Compound 961, 3-(6,8-dimethylimidazo[1,2-a]pyrazin-2-yl)-7-{2-[(2-hydroxypropyl)amino]ethoxy}-2H-chromen-2-one]",*** (fold increase between >1.35 and ≤1.5),< 0.1,< 300
185 to 187,"Cc1cn2cc(-c3cc4ccc(N5CCN(C)C(C)(C)C5)cc4oc3=O)nc2c(C)n1 [Compound 737, 3-(6,8-dimethylimidazo[1,2-a]pyrazin-2-yl)-7-(3,3,4-trimethylpiperazin-1-yl)-2H-chromen-2-one]",***** (fold increase >1.65),< 0.1,< 300
220 to 223,"Cc1cn2cc(-c3cc4ccc(CN5CCN(C)CC5)cc4oc3=O)nc2c(C)n1 [Compound 849, 3-(6,8-dimethylimidazo[1,2-a]pyrazin-2-yl)-7-[(4-methylpiperazin-1-yl)methyl]-2H-chromen-2-one]",***** (fold increase >1.65),0.1 to 0.3,300 to 1000
231 to 233,"C[C@@H]1CN(c2ccc3cc(C(=O)Nc4ccccc4)c(=O)oc3c2)C[C@H](C)N1 [Compound 30, 7-[(3R,5S)-3,5-dimethylpiperazin-1-yl]-2-oxo-N-phenyl-2H-chromene-3-carboxamide]",* (maximum fold increase of ≤1.2),1 to 3,
216 to 218,"Cc1cn2cc(-c3cc4ccc(N5CCC(NC(C)C)CC5)cc4oc3=O)nc2c(C)n1 [Compound 923, 3-(6,8-dimethylimidazo[1,2-a]pyrazin-2-yl)-7-[4-(propan-2-ylamino)piperidin-1-yl]-2H-chromen-2-one]",*** (fold increase between >1.35 and ≤1.5),< 0.1,300 to 1000
166 to 168,"O=c1oc2cc(N3CCNCC3)ccc2cc1-c1cccc(OC2CCC2)n1 [Compound 414, 3-[6-(cyclobutyloxy)pyridin-2-yl]-7-(piperazin-1-yl)-2H-chromen-2-one]",* (maximum fold increase of ≤1.2),3 to 30,
